Experimental data reported in paper PMC3849131, “^18 F-click labeling and preclinical evaluation of a new ^18 F-folate for PET imaging” (EJNMMI Research, 2013).

Test system: KB tumor-bearing mice
Test: Ex vivo biodistribution in human KB tumor-bearing nude mice
Settings: for Ratio of tumor to Blood / Ratio of tumor to Kidney / Ratio of tumor to Liver / %ID/g Blood / %ID/g Bone / %ID/g Feces / %ID/g Gall bladder / %ID/g Heart / %ID/g Intestines (empty) / %ID/g Tumor / %ID/g Kidneys / %ID/g Liver / %ID/g Lung / %ID/g Muscle / %ID/g Salivary glands / %ID/g Spleen / %ID/g Stomach (empty): n = 3; for %ID/g Tumor: KB tumor
Experimental: All animal experiments were approved by the local veterinary department and complied with Swiss and local laws on animal protection. Female CD-1 nude mice (Charles River, Sulzfeld, Germany) were fed with a folate-deficient rodent diet (Harlan Laboratories, Indianapolis, IN, USA). After an acclimatization period of 5 to 7 days, human KB tumor cells (5 × 10^6 cells in 0.1 mL sterile phosphate-buffered saline (PBS)) were inoculated subcutaneously on both shoulders of each mouse. Twelve days later, the animals were intravenously injected with [^18 F]12 (approximately 5 MBq, 100 μL). […] Animals were euthanized at the indicated time points, and selected organs and tissues were collected, weighed, and measured in a γ-counter. The incorporated radioactivity was expressed as percentage injected dose per gram (%ID/g) of tissue. PET/computed tomography (CT) experiments were performed with a dedicated small-animal PET/CT scanner (eXplore Vista PET/CT, Sedecal, Algete, Spain/GE Healthcare). Animals were intravenously injected with [^18 F]12 (approximately 13 MBq, 100 μL). For scanning, mice were anesthetized with isoflurane in an air/oxygen mixture. The PET scans were acquired from 60 to 90 min post-injection (p.i.) followed by a CT. After acquisition, PET data were reconstructed in user-defined time frames, and the fused datasets of PET and CT were analyzed with PMOD software (version 3.4).
Biodistribution studies of the new ^18 F-folate [^18 F]12 were performed using human KB tumor-bearing nude mice, determined at 30, 60, and 90 min post-injection. […] Selective blocking of the folate receptors led to a decrease in specific radiotracer accumulation of 94% in KB tumors and 99% in kidneys (Figure 2). The strong blocking effect reflected the high specificity of the tracer to the FR in vivo. Unspecific liver uptake decreased from 5.2%ID/g to 2.1%ID/g over 90 min similar to the background radioactivity in the feces and gall bladder (Table 2), which is believed to be a beneficial effect of the increased polarity of this novel radiofolate. Compared to the biodistribution profile at 45 min post-injection of the former ^18 F-click folate by Ross and co-workers, the specific uptake of the original ^18 F-click folate in KB tumors was retained, whereas the specific kidney uptake more than doubled. This indicated a stronger tendency to renal excretion, more likely a result of the increased polarity of the new ^18 F-folate [^18 F]12. Additionally, the highest unspecific background accumulation in the gall bladder was reduced by half. This background reduction correlated with the more renal excretion and the two times lower k’ value as an indicator of lipophilicity of the here presented radiofolate. […] On the other hand, the still increased uptake levels in the gall bladder and feces were evidence of a prominent hepatobiliary elimination pathway of [^18 F]12. However, distinct changes in the molecular structure of the folate-based radioconjugate [^18 F]12 induced a higher polarity into the lead molecule ^18 F-click folate and a significant reduction of the in vivo background.
Figure 2 Results of ex vivo biodistribution studies under control and blockade conditions using [^18 F]12 in mice. The human KB tumor-bearing nude mice were euthanized 60 min post-injection. Data are expressed as percentage injected dose per gram tissue (%ID/g).

[1] = 60 min p.i., 100 μg native folic acid before tracer
[2] = 60 min p.i. blockade (100 μg folic acid 5 min before tracer)

“16-(4-(((2-amino-4-oxo-3,4-dihydropteridin-6-yl)methyl)amino)benzamido)-1-(4-(2-(2-(2-[^18 F]fluoroethoxy)ethoxy)ethoxy)-1H-1,2,3-triazol-1-yl)-13-oxo-3,6,9-trioxa-12-azaheptadecan-17-oic acid [[^18 F]12]” was tested, and the “Ratio of tumor to Blood” value (30 min p.i.) was 16.81 ± 3.13, the “Ratio of tumor to Kidney” value (30 min p.i.) was 0.08 ± 0.02 and the “Ratio of tumor to Liver” value (30 min p.i.) was 0.69 ± 0.22. The “decrease in specific radiotracer accumulation by FR blocking, KB tumors” value [1] was 94%, the “decrease in specific radiotracer accumulation by FR blocking, kidneys” value [1] was 99% and the “Ratio of tumor to Blood” value (60 min p.i.) was 18.95 ± 2.68. The “Ratio of tumor to Kidney” value (60 min p.i.) was 0.08 ± 0.01, the “Ratio of tumor to Liver” value (60 min p.i.) was 0.86 ± 0.19 and the “Ratio of tumor to Blood” value (90 min p.i.) was 22.72 ± 6.73. The “Ratio of tumor to Kidney” value (90 min p.i.) was 0.09 ± 0.01, the “Ratio of tumor to Liver” value (90 min p.i.) was 1.55 ± 0.15 and the “%ID/g Blood” value (30 min p.i.) was 0.20 ± 0.02 %ID/g. For the same substance, the “%ID/g Blood” value [2] was 0.04 ± 0.01 %ID/g, the “%ID/g Blood” value (60 min p.i.) was 0.18 ± 0.01 %ID/g and the “%ID/g Blood” value (90 min p.i.) was 0.16 ± 0.02 %ID/g. For the same substance, the “%ID/g Bone” value (30 min p.i.) was 1.47 ± 0.05 %ID/g, the “%ID/g Bone” value [2] was 0.06 ± 0.06 %ID/g and the “%ID/g Bone” value (60 min p.i.) was 1.13 ± 0.21 %ID/g. The “%ID/g Bone” value (90 min p.i.) was 0.84 ± 0.16 %ID/g, the “%ID/g Feces” value (30 min p.i.) was 164.2 ± 72.5 %ID/g and the “%ID/g Feces” value [2] was 105.5 ± 128.7 %ID/g. The “%ID/g Feces” value (60 min p.i.) was 29.48 ± 19.04 %ID/g, the “%ID/g Feces” value (90 min p.i.) was 11.36 ± 4.29 %ID/g and the “%ID/g Gall bladder” value (30 min p.i.) was 309.3 ± 187.6 %ID/g. The “%ID/g Gall bladder” value [2] was 775.5 ± 206.5 %ID/g, the “%ID/g Gall bladder” value (60 min p.i.) was 133.2 ± 67.38 %ID/g and the “%ID/g Gall bladder” value (90 min p.i.) was 55.13 %ID/g. The “%ID/g Heart” value (30 min p.i.) was 1.81 ± 0.61 %ID/g, the “%ID/g Heart” value [2] was 0.02 ± 0.01 %ID/g and the “%ID/g Heart” value (60 min p.i.) was 1.09 ± 0.07 %ID/g. The “%ID/g Heart” value (90 min p.i.) was 0.79 ± 0.16 %ID/g, the “%ID/g Intestines (empty)” value (30 min p.i.) was 23.52 ± 7.37 %ID/g and the “%ID/g Intestines (empty)” value [2] was 14.72 ± 19.32 %ID/g. The “%ID/g Intestines (empty)” value (60 min p.i.) was 4.56 ± 2.31 %ID/g, the “%ID/g Intestines (empty)” value (90 min p.i.) was 1.92 ± 0.52 %ID/g and the “%ID/g Tumor” value (30 min p.i.) was 3.4 %ID/g. The “%ID/g Tumor” value (30 min p.i., listed as 12) was 3.39 ± 0.54 %ID/g, the “%ID/g Tumor” value [2] was 0.19 ± 0.07 %ID/g and the “%ID/g Tumor” value (60 min p.i.) was 3.39 ± 0.44 %ID/g. For the same substance, the “%ID/g Tumor” value (90 min p.i.) was 3.54 ± 0.68 %ID/g, the “%ID/g Kidneys” value (30 min p.i.) was 42 %ID/g and the “%ID/g Kidneys” value (30 min p.i., listed as 12) was 41.80 ± 2.58 %ID/g. For the same substance, the “%ID/g Kidneys” value [2] was 0.26 ± 0.08 %ID/g, the “%ID/g Kidneys” value (60 min p.i.) was 40.77 ± 4.34 %ID/g and the “%ID/g Kidneys” value (90 min p.i.) was 41.04 ± 7.04 %ID/g. For the same substance, the “%ID/g Liver” value (30 min p.i.) was 5.2 %ID/g, the “%ID/g Liver” value (30 min p.i., listed as 12) was 5.24 ± 1.57 %ID/g and the “%ID/g Liver” value [2] was 0.21 ± 0.09 %ID/g. The “%ID/g Liver” value (60 min p.i.) was 4.05 ± 0.67 %ID/g, the “%ID/g Liver” value (90 min p.i.) was 2.1 %ID/g and the “%ID/g Liver” value (90 min p.i., listed as 12) was 2.30 ± 0.54 %ID/g. The “%ID/g Lung” value (30 min p.i.) was 1.21 ± 0.15 %ID/g, the “%ID/g Lung” value [2] was 0.04 ± 0.03 %ID/g and the “%ID/g Lung” value (60 min p.i.) was 1.02 ± 0.7 %ID/g. For the same substance, the “%ID/g Lung” value (90 min p.i.) was 0.86 ± 0.17 %ID/g, the “%ID/g Muscle” value (30 min p.i.) was 1.91 ± 0.25 %ID/g and the “%ID/g Muscle” value [2] was 0.08 ± 0.09 %ID/g. For the same substance, the “%ID/g Muscle” value (60 min p.i.) was 1.64 ± 0.46 %ID/g, the “%ID/g Muscle” value (90 min p.i.) was 1.17 ± 0.03 %ID/g and the “%ID/g Salivary glands” value (30 min p.i.) was 8.01 ± 1.16 %ID/g. For the same substance, the “%ID/g Salivary glands” value [2] was 0.20 ± 0.18 %ID/g, the “%ID/g Salivary glands” value (60 min p.i.) was 9.28 ± 1.68 %ID/g and the “%ID/g Salivary glands” value (90 min p.i.) was 7.03 ± 1.98 %ID/g. For the same substance, the “%ID/g Spleen” value (30 min p.i.) was 0.53 ± 0.14 %ID/g, the “%ID/g Spleen” value [2] was 0.06 ± 0.03 %ID/g and the “%ID/g Spleen” value (60 min p.i.) was 0.49 ± 0.04 %ID/g. For the same substance, the “%ID/g Spleen” value (90 min p.i.) was 0.43 ± 0.08 %ID/g, the “%ID/g Stomach (empty)” value (30 min p.i.) was 2.18 ± 0.76 %ID/g and the “%ID/g Stomach (empty)” value [2] was 0.12 ± 0.11 %ID/g. For the same substance, the “%ID/g Stomach (empty)” value (60 min p.i.) was 1.39 ± 0.13 %ID/g and the “%ID/g Stomach (empty)” value (90 min p.i.) was 0.96 ± 0.37 %ID/g.
